In patent US8852240B2, “Methods and compositions for fostering and preserving bone growth” (Kieran Murphy, LLC, priority 2004, dated 2014):
Entries after “also recorded” stand apart in the source; their conditions may differ.

Columns and labels:
[1] = system: marrow cavity of rat femur; test: Calcein labeling of mid-shaft sections of rat femur after bone marrow ablation (BMX); format: in vivo; conditions: for protection of bone formed in the marrow cavity (calcein fluorescent signal): BMX + PTH 21 days, then anti-resorptive agent for the next 63 days (days 22-84), FIG. 7A
Procedure: FIG. 1A is a section of the mid-shaft of a rat femur following, respectively, 21 and 84 days of treatment. The groups include: (a) control—no bone marrow ablation (“BMX”) or anabolic agent, (b) BMX—bone marrow ablation alone; and (c) BMX+PTH−bone marrow ablation plus treatment for either 21 or 84 days with PTH 1-34 NH2. In addition, the rats were injected with calcein, a fluorescent dye, on 9, 8, 2 and 1 day prior to sacrificing the animals. Calcein becomes incorporated into bone and serves as a measure of bone growth and mineralization;
FIG. 6A illustrates the degree of persistent bone growth achieved after 84 days with the administration of a biocompatible material, in this instance Cementek (Cementek LV, Non-stoichiometric hydroxyapatite prepared from the reaction between the acid and base calcium phosphates in the presence of an aqueous solution. Teknimid, 65500 VIV en Biggore, France) or Pepgen-15 (a high purity anorganic bovine graft material, radiopaque, peptide-enhanced to mimic autogeneous bone. Dentsply Friadent CeraMed Lakewood, Colo.). All samples were taken from femurs which had BMX performed on them. The groups included: BMX followed by 84 days anabolic agent or PBS (buffer) presented in the first row or BMX followed by insertion of a slurry of biocompatible matrix (Cementek or Pepgen-15) with our without concomitant PTH treatment for 84 days;
FIGS. 7A and 7B illustrate the effect attributable to administration of the anti-resorption agent, Alendronate, in preserving bony tissue formed according to the method of the invention. The following treatment modalities are included: (a) BMX+PTH 1-34 NH2 for 21 days+PBS (buffer) during days 22-84; (b) BMX+PTH 1-34 NH2 for 21 days+calcitonin during days 22-84; (c) BMX+PTH 1-34 NH2 for 21 days+Alendronate during days 22-84; and (d) BMX+PTH 1-34 NH2 during days 1-84.

[2] = system: femoral shaft marrow cavity; test: Micro-CT analysis of the femoral shaft marrow cavity after bone marrow ablation (BMX); format: in vivo, rat; conditions: for protection of bone formed in the marrow cavity (Micro-CT): BMX + PTH 21 days, then anti-resorptive drug for an additional 63 days, FIG. 7B
Source text: FIG. 1B depicts the results from the same groups of animals using the imaging technique known as Micro-CT. This technique provides a high resolution analysis of the femoral shaft marrow cavity from the Control, BMX, and the BMX+PTH 1-34 NH2 of rats treated with PBS (buffer) or PTH for 21 or 84 days, respectively;
FIG. 6B depicts the results obtained from the same groups of animals reported in FIG. 6A using the Micro-CT imaging technique. This imaging technique provides a high resolution analysis of the femoral shaft marrow cavity from the BMX+PBS or PBX+PTH treatments, compared with femurs that had biocompatible materials (Cementek or Pepgen-15) injected into the bone marrow cavity following the step (e.g., ablation) resulting in the inducement of increased osteoblast activity; and
FIG. 7B depicts the results from the same groups of animals reported in FIG. 7A using the Micro-CT imaging technique, which provides a high resolution analysis of the femoral shaft marrow cavity.

| Molecule | protection of bone formed in the marrow cavity (calcein fluorescent signal) [1] | protection of bone formed in the marrow cavity (calcein fluorescent signal) ([1]; listed as Alendronate) | protection of bone formed in the marrow cavity (Micro-CT) [2] | bone formation in femur mid-shaft (calcein) ([1]; BMX + PTH for 21 days, day 21, FIG. 1A) | bone / fluorescent label remaining in ablated marrow cavity (calcein) ([1]; BMX + PTH for 84 days, day 84, FIG. 1A / 7A) | bone formation in femurs receiving a biocompatible matrix material (calcein) ([1]; BMX + biocompatible matrix + PTH 84 days versus buffer (PBS), FIG. 6A) | bone in femoral shaft marrow cavity (Micro-CT) ([2]; BMX + PTH 1-34 NH2 + biocompatible material versus biocompatible material alone, 84 days, FIG. 6B) | newly formed bone in the marrow cavity (Micro-CT) ([2]; BMX + PTH for 21 days, day 21, FIG. 1B) | bone in marrow cavity of femur mid-shaft/diaphysis (Micro-CT) ([2]; BMX + PTH for 84 days, day 84, FIG. 1B / 7B) |
| --- | --- | --- | --- | --- | --- | --- | --- | --- | --- |
| NCCCC(O)(P(=O)(O)O)P(=O)(O)O [alendronate] | protect the bone | greater protective effect | to a greater extent |  |  |  |  |  |  |
| calcitonin | protected; also recorded: protect the bone |  | protects the bone |  |  |  |  |  |  |
| PTH 1-34 NH2 |  |  |  | leads to additional bone formation | resorption of a substantial portion of the bone that was present at day 21; also recorded: contains a minimum amount of fluorescent label; also recorded: no longer contains fluorescent labels | markedly greater than for buffer (PBS) alone | better results than the use of biocompatible material alone | further augmented | no longer contains substantial amounts of bone; also recorded: no longer contains radio-dense bone |
